{"source": "paper PMC10451034", "about": "“Highly Efficient Photosensitizers with Molecular Vibrational Torsion for Cancer Photodynamic Therapy” (ACS Central Science, 2023)", "key": {"HepG2 cells": {"tested_on": "HepG2 cells", "test": "Lactate dehydrogenase (LDH) release into cell culture medium", "assay_type": "cell-based, human", "settings": "under irradiation", "procedure": "Next, in order to verify the disruption effect on cell structural integrity of the ^1O2 generation by QTCy7-R under irradiation, JC-1 staining imaging was conducted to monitor the mitochondria membrane potential. […] On the other hand, cell membrane damage caused by the photooxidation of QTCy7-Ac and QTCy7-CHO could be confirmed by a visualized observation. […] Furthermore, the lactate dehydrogenase (LDH) content in cell culture medium was measured to characterize the extent of cell membrane damage.[49]\nQTCy7-Ph, (e) QTCy7-Ac, (f) QTCy7-CHO, (g) TCy7 and (h) MB under 660 nm irradiation (4 mW/cm2) in PBS. (i) The relative singlet oxygen yield of different compounds in PBS.\nFigure S19. (a) The cellular uptake of QTCy7-R in HepG2 cells (QTCy7-Me/QTCy7-Ph: λex = 640 […]\nμm). (b) The fluorescence intensity of QTCy7-R in cell at different time. (c) The LDH release rate of cells under different treatment conditions.\nFigure S20. The enlarged images of (a) QTCy7-Ac and (b) QTCy7-CHO caused cell membrane destruction at 0 min and 4 min. Yellow arrows indicate the formation of distinct bubble-like structures on cell membrane. (λex = 640 nm, λem = 650-750 nm, scale bars: 20 μm). […]"}, "[1]": {"tested_on": "4T1 subcutaneous solid tumor", "test": "Tumor suppression (PDT) in 4T1-subcutaneous tumor model", "assay_type": "in vivo, BALB/c mice", "settings": "for tumor volume increase: no irradiation", "procedure": "In view of the observation that the fluorescence intensity of QTCy7-Ac in the tumor site peaked around 2–2.5 h after intravenous injection, this period was chosen as the PDT time window. […] Even so, this approach achieved partial tumor suppression; the tumor volume was 1-fold compared with the initial situation. […] After PDT treatment, the tumor kept shrinking in size (Figure S22a), which achieved a tumor suppression rate of nearly 95% (Figure S22b). Nevertheless, the tumors in PBS groups increased quickly with a 6-fold increment compared with the initial volume whether exposed to irradiation or not, which ruled out the influence of light on tumor growth. In addition, there was virtually no difference between the intratumoral and intravenous injection groups treated with QTCy7-Ac, with tumor volumes increasing by 6-fold and 7-fold, respectively, which excluded the cytotoxicity of the dye alone. […]\nof major organs, the mice L) was intravenously injected with QTCy7-Ac (200 μM, 100 μL) 2 hours in advance were killed and the main organs and tumors were removed for […]\nTumor suppression experiments of 4T1-subcutaneous tumor model\nTo confirm the in vivo PDT efficacy of QTCy7-Ac, all the BALB/c mice were divided into 6 groups: 1) saline injection; 2) saline injection with 660 nm irradiation (100 mW/cm2, 15 min); 3) QTCy7-Ac (200 μM, 100 μL) intratumoral injection; 4) QTCy7-Ac (200 μM, 100 μL) intratumoral injection with 660 nm irradiation (100 mW/cm2, 15 min); 5) QTCy7-Ac (200 μM, 100 μL) intravenous injection; 6) QTCy7-Ac (200 μM, 100 μL) intravenous injection with 660 nm irradiation (100 mW/cm2, 15 min); When the volume of subcutaneous tumors reached about 100 mm 3, mice were injected with PBS or QTCy7-Ac, respectively. After 2 h post-injection, tumor region was irradiated with […] light. In the following half month, the tumor volume of all the mice was measured every two days by a vernier caliper. The volume of tumors was calculated by the following formula: […]\nWhere “V” represent the tumor volume, “a” represent greatest longitudinal diameter (length) and “b” represent the greatest transverse diameter (width).\nThe in vivo biocompatibility was evaluated by using measurement mice body weight and H&E slice histological analysis. After the PDT treatment, the mice were euthanized, and main organs including heart, liver, spleen, lung, kidneys and tumors were harvested for histological analysis by means of hematoxylin-eosin (H&E) staining.\nData were expressed as mean ± standard deviation. Student's t test was used to evaluate the statistical significance. P values < 0.05 were regarded statistically"}, "[2]": {"tested_on": "murine mammary carcinoma cells (4T1)", "test": "MTT cytotoxicity assay, 4T1", "assay_type": "cell-based", "settings": "Mus musculus, light or radiation study; 4T1, 660 nm irradiation 12 J/cm^2", "procedure": "(§1) DMEM medium was replaced with saline to prevent false positive interference. Then the cells were exposed to different following treatments: 1) cells incubated with PBS; 2) cells incubated with PBS under 660 nm irradiation (20 mW/cm2, 10 min); 3) cells incubated with QTCy7-R; 4) cells incubated with QTCy7-R under 660 nm irradiation (20 mW/cm2, 10 min). After being different treated, the cells were stained with Calcein-AM and Propidium Iodide (PI) according to the manufacture instruction. Then the confocal fluorescence imaging was carried out and recorded with a 10 × objective lens.\n(§2) Cytotoxicity was tested by the reduction of methyl thiazolyl tetrazolium to formazan by succinic acid dehydrogenase in the mitochondria of living cells (MTT assay). […] The MTT solution was carefully removed and 100 μL DMSO was added to dissolve formazan, and the absorbance of each well was measured by a multifunctional microplate reader at 570 nm and 630 nm. […]\n(§3) Where “OD” represent the absorbance at 570 nm and 630 nm, “ps” and “control” represent experimental groups and control groups, respectively. […]\n(§4) And the fluorescence signals were monitored at different post -injection time by a NightOWL II LB983 small animal in vivo imaging system (German). […]"}, "[3]": {"tested_on": "human mammary carcinoma (MCF7)", "test": "MTT cytotoxicity assay, MCF7", "assay_type": "cell-based", "settings": "light or radiation study, MCF7, 660 nm irradiation 12 J/cm^2", "procedure": "as §1, §2, §3, §4"}}, "data": [{"smiles": "CCOC(=O)C1=C/C(=C\\C=C2/Sc3ccccc3N2CC)C(=O)C(/C=C/c2sc3ccccc3[n+]2CC)=C1", "note": "[QTCy7-Ac]", "values": [{"measurement": "LDH release rate", "setting": "HepG2 cells", "value": "about 70%"}, {"measurement": "H&E staining of tumor tissue", "setting": "[1]; QTCy7-Ac-mediated PDT", "value": "Conspicuous morphological damage"}, {"measurement": "tumor volume compared with initial", "setting": "[1]; intratumoral injection + 660 nm, 100 mW/cm^2, 15 min", "value": 1, "unit": "fold"}, {"measurement": "tumor volume increase", "setting": "[1]; intratumoral injection", "value": 6, "unit": "fold"}, {"measurement": "tumor suppression rate", "setting": "[1]; intravenous injection + 660 nm, 100 mW/cm^2, 15 min", "value": "~95", "unit": "%"}, {"measurement": "tumor volume increase", "setting": "[1]; intravenous injection", "value": 7, "unit": "fold"}, {"measurement": "IC50", "setting": "[2]", "value": "~500", "unit": "nM"}, {"measurement": "IC50", "setting": "[3]", "value": "~600", "unit": "nM"}]}]}
